Assay results as given in the Deep4Chem optical property database.
Several values for one entry are separate records, joined by “and”; a condition that tells them apart may be missing. Equal entries are not always repeated. Blank lines part the entries; values can stand above or below the compound they belong to.

Test: solvent given as SMILES

SMILES: O=C1c2ccccc2-c2cccc(O)c21
fluorescence lifetime (in C1CCCCC1): 1.24 ns | fluorescence lifetime (in C1COCCO1): 3.38 ns | fluorescence lifetime (in CC#N): 9.67 ns | fluorescence lifetime (in CC(C)O): 5.5 ns | fluorescence lifetime (in CCCCO): 5.22 ns | fluorescence lifetime (in CCCO): 4.82 ns | fluorescence lifetime (in CCO): 4.85 ns | fluorescence lifetime (in CCOC(C)=O): 5.48 ns | fluorescence lifetime (in CCOCC): 2.39 ns | fluorescence lifetime (in CO): 3.61 ns

SMILES: F[B-]1(F)n2c(/C=C/c3ccc(C(=C(c4ccccc4)c4ccccc4)c4ccccc4)cc3)ccc2C(c2ccccc2)=C2C=CC(/C=C/c3ccc(C(=C(c4ccccc4)c4ccccc4)c4ccccc4)cc3)=[N+]21
fluorescence lifetime (in C1CCOC1): 3.98 ns

SMILES: Cc1c(OCC(=O)O)cc2c3c([nH]c2c1C)C(=O)CCC3
fluorescence lifetime (in C1COCCO1): 0.54 ns | fluorescence lifetime (in CC#N): 0.97 ns | fluorescence lifetime (in CCO): 1.52 ns | fluorescence lifetime (in CS(C)=O): 2.34 ns | fluorescence lifetime (in Cc1ccccc1): 0.52 ns | fluorescence lifetime (in O): 1.77 ns

SMILES: CC(C)(C)NC(=O)c1cc2ccc3cccc4ccc(c1C(=O)NC(C)(C)C)c2c34
fluorescence lifetime (in ClC(Cl)Cl): 17.2 ns

SMILES: COC(=O)c1ccc(C#Cc2ccc(N(C)C)cc2)cc1
fluorescence lifetime (in C1CCCCC1): 1.35 ns | fluorescence lifetime (in C1CCOC1): 2.43 ns | fluorescence lifetime (in C1COCCO1): 2.38 ns | fluorescence lifetime (in CC1CCCO1): 2.68 ns | fluorescence lifetime (in CC#N): 1.48 ns | fluorescence lifetime (in CC(C)=O): 1.51 ns | fluorescence lifetime (in CC(C)CC(C)(C)C): 0.73 ns | fluorescence lifetime (in CC(C)O): 1.32 ns | fluorescence lifetime (in CCCCCCCCCCCCCCCC): 0.75 ns | fluorescence lifetime (in CCCCCCCCCCCCCCCCCl): 0.92 ns | fluorescence lifetime (in CCOC(C)=O): 2.47 ns | fluorescence lifetime (in CCOCC): 0.959 ns | fluorescence lifetime (in CN(C)C=O): 1.7 ns | fluorescence lifetime (in CS(C)=O): 1.92 ns | fluorescence lifetime (in Cc1ccccc1): 0.9 ns

SMILES: CC(C)(C)NS(=O)(=O)c1ccc2c(c1)C(=O)/C(=C1\Sc3ccc(S(=O)(=O)NC(C)(C)C)cc3C1=O)S2
fluorescence lifetime (in C1COCCO1): 12.4 ns | fluorescence lifetime (in CN(C)C=O): 8.33 ns | fluorescence lifetime (in CS(C)=O): 0.07 ns

SMILES: COc1cc(OC)c(C2=C3C(C)=CC(C)=[N+]3[B-](F)(F)n3c(C)cc(C)c32)c(OC)c1
fluorescence lifetime (in C1CCOC1): 5.7 ns | fluorescence lifetime (in CCCCCC): 6.35 ns

SMILES: CCCCCCN(CCCCCC)c1ccc(C#Cc2ccc(C(F)(F)F)cc2)cc1
fluorescence lifetime (in ClCCl): 2.1 ns

SMILES: CN(C)c1ccc(-c2nc3c(c4c2-c2ccccc2CC4)-c2ccccc2CC3)cc1
fluorescence lifetime (in C1CCOC1): 0.91 ns | fluorescence lifetime (in CC#N): 1.19 ns | fluorescence lifetime (in CCOC(C)=O): 0.75 ns | fluorescence lifetime (in CS(C)=O): 2.13 ns | fluorescence lifetime (in Cc1ccccc1): 0.27 ns | fluorescence lifetime (in ClCCl): 0.8 ns

SMILES: COc1cc(N(c2ccccc2)c2ccc(C=C(C#N)C#N)c(OC)c2)ccc1C=C(C#N)C#N
fluorescence lifetime (in C1COCCO1): 0.925 ns | fluorescence lifetime (in CC#N): 0.026 ns | fluorescence lifetime (in CC(C)=O): 0.049 ns | fluorescence lifetime (in CCOC(C)=O): 0.22 ns | fluorescence lifetime (in CN(C)C=O): 0.23 ns | fluorescence lifetime (in CO): 0.11 ns | fluorescence lifetime (in Cc1ccccc1): 0.051 ns | fluorescence lifetime (in ClC(Cl)Cl): 0.23 ns | fluorescence lifetime (in ClCCl): 0.15 ns

SMILES: Cc1cc(C)c2c(c1)c1cc(C)cc(C)c1n2-c1ccc2c(c1)Oc1cc3c(cc1B2c1c(C(C)C)cc(C(C)C)cc1C(C)C)B(c1c(C(C)C)cc(C(C)C)cc1C(C)C)c1ccccc1O3
fluorescence lifetime (in Cc1ccccc1): 21 ns | fluorescence lifetime (in O=P(c1ccccc1)(c1ccccc1)c1ccc2oc3ccc(P(=O)(c4ccccc4)c4ccccc4)cc3c2c1): 25 ns

SMILES: Cc1ccc(C2=C3C=C(I)C=[N+]3[B-](F)(F)n3c2cc(I)c3I)cc1
fluorescence lifetime (in C1CCCCC1): 0.327 ns | fluorescence lifetime (in CC#N): 0.142 ns | fluorescence lifetime (in CCO): 0.196 ns | fluorescence lifetime (in CCOC(C)=O): 0.207 ns | fluorescence lifetime (in CO): 0.179 ns | fluorescence lifetime (in OCC(F)(F)F): 0.185 ns

SMILES: Nc1ccccc1
fluorescence lifetime (in C1CCCCC1): 3.4 ns

SMILES: CC(C)[Si](C#Cc1ccc(C#C[Si](C(C)C)(C(C)C)C(C)C)c2nc3cc4c(cc3nc12)[C@H]1c2ccccc2[C@@H]4c2ccccc21)(C(C)C)C(C)C
fluorescence lifetime (in CCCCCC): 3.1 ns | fluorescence lifetime (in ClCCl): 3.4 ns

SMILES: CCCC(=O)c1c2c(c(C(=O)CCC)c3c1OC(CC(=O)OC)(C(=O)OC)O3)OCO2
fluorescence lifetime (in CC#N): 22.5 ns | fluorescence lifetime (in CCCCCC): 18.5 ns | fluorescence lifetime (in CCO): 17.7 ns | fluorescence lifetime (in CO): 11.9 ns | fluorescence lifetime (in ClCCl): 25.1 ns

SMILES: Cc1cc(C)c(C)c(-c2ccc3cc(C)c(=O)oc3c2)c1C
fluorescence lifetime (in C1CCCCC1): 0.84 ns | fluorescence lifetime (in CC#N): 1.07 ns | fluorescence lifetime (in CO): 1.43 ns

The remaining lines, values ahead:

fluorescence lifetime (in ClCCl): 0.99 ns
SMILES: Cn1c(=O)cc(C(=O)c2ccccc2)c2sc(-c3ccc(N(c4ccccc4)c4ccccc4)cc3)cc21

fluorescence lifetime (in CC#N): 0.07 ns
SMILES: C(=C\c1ccccc1)/c1ccccc1

fluorescence lifetime (in CCOC(C)=O): 8.29 ns
SMILES: CC(C)(C)OC(=O)n1ccc2c3ccc4cccc5ccc(cc21)c3c54

fluorescence lifetime (in CC#N): 1.24 ns and 1.1 ns
SMILES: Cn1c(-c2ccc(-c3nc(-c4ccccc4)c(-c4ccccc4)n3C)cc2)nc(-c2ccccc2)c1-c1ccccc1

fluorescence lifetime (in ClCCl): 0.15 ns
SMILES: C[Si]1(C)c2ccccc2-c2ccccc21

fluorescence lifetime (in N#Cc1ccc2c(c1)c1ccccc1n2-c1cccc(-n2c3ccccc3c3ccccc32)c1): 6.53 ns
SMILES: CC1(C)c2ccccc2N(c2ccc(-c3cccc(C#N)c3)cc2)c2ccccc21

fluorescence lifetime (in ClC(Cl)Cl): 7.55 ns
SMILES: CC(C)(C)NC(=O)c1ccc2ccc3cccc4ccc1c2c34

fluorescence lifetime (in C1CCOC1): 1.01 ns | fluorescence lifetime (in ClCCl): 0.95 ns
SMILES: CCC(CC)COC1=CC2=C3c4cc(OCC(CC)CC)c(-c5ccccc5)n4[B-](F)(F)[n+]4nnn(c43)[B-](F)(F)[N+]2=C1c1ccccc1

fluorescence lifetime (in ClCCl): 6.87 ns
SMILES: COc1cc(OC)cc(C2=[O+][B-](F)(F)OC(c3ccccc3)=C2)c1

fluorescence lifetime (in ClCCl): 3.4 ns
SMILES: Cc1cc(-c2ccc(-c3ccccc3)cc2)cc(C)[o+]1

fluorescence lifetime (in O): 15.1 ns
SMILES: Cc1ccc2c(c1)c(=O)c1ccccc1n2CCCCCC(=O)O

fluorescence lifetime (in CO): 1.17 ns | fluorescence lifetime (in ClC(Cl)Cl): 4.15 ns
SMILES: CCN1C(=CC2=C([O-])C(=Cc3[se]c4ccccc4[n+]3CC)C2=O)[Se]c2ccccc21

fluorescence lifetime (in CCO): 18.7 ns
SMILES: Cc1cc2cc3ccccc3cc2cn1
